Results on ten compounds are retold here after ChEMBL document CHEMBL3414500, “New polycyclic dual inhibitors of the wild type and the V27A mutant M2 channel of the influenza A virus with unexpected binding mode” (Eur J Med Chem, 2015).

Activity calls are given as the source filed them. The calls are words filed in the database; no cut-off is given here. Some results are limits rather than exact numbers.

In general, EC50 refers to the midpoint of the concentration-response curve. In general, EC99 refers to the point of the concentration-response curve where the effect stands at 99%. The term inhibition denotes how much of the control response was suppressed. A low value points to a weak effect. Usually IC50 stands for the concentration that inhibits the measured activity by half. The CC50 is the concentration at which the toxic effect on the cells reaches its halfway point.

Data set [1] can be described thus: Antiviral activity against Influenza A virus (A/HK/7/87(H3N2)) infected in MDCK cells assessed as virus plaque reduction preincubated for 1 hr followed by compound wash out and incubated for 72 hrs by crystal violet staining. It counts as functional, cell-based, Influenza A virus (A/Hong Kong/7/1987(H3N2)).
For data set [2], the system named is Influenza A virus. Kind of data set: Antiviral activity against Influenza A virus (A/PR/8/34(H1N1)) infected in MDCK cells assessed as reduction of virus-induced cytopathic effect after 72 hrs by microscopic analysis. It counts as functional, organism-based. The settings on record: A/Puerto Rico/8/1934(H1N1). Background: Damage to the host cells serves as the signal in cytopathic effect assays.

Data set [3] is described as follows: Antiviral activity against Influenza A virus (A/HK/7/87(H3N2)) infected in MDCK cells assessed as 2-log10 reduction in virus yield after 24 hrs by RT-qPCR analysis. The class given is functional, Influenza A virus (A/Hong Kong/7/1987(H3N2)). In general terms: Real-time PCR tracks product formation cycle by cycle.
Data set [4] is described as follows: Antiviral activity against Influenza A virus (A/HK/7/87(H3N2)) infected in MDCK cells assessed as reduction of virus-induced cytopathic effect after 72 hrs by microscopic analysis. The class given is functional, cell-based, Influenza A virus (A/Hong Kong/7/1987(H3N2)).
Data set [5] is described as follows: Antiviral activity against Influenza A virus (A/HK/7/87(H3N2)) infected in MDCK cells assessed as cell viability after 72 hrs by MTS assay. The class given is functional, cell-based, Influenza A virus (A/Hong Kong/7/1987(H3N2)). In general terms: Tetrazolium dyes change colour on reduction, which living cells bring about.
For data set [6], the system named is Influenza A virus. Kind of data set: Antiviral activity against Influenza A virus (A/PR/8/34(H1N1)) infected in MDCK cells assessed as cell viability after 72 hrs by MTS assay. It counts as functional, organism-based. The following applies: A/Puerto Rico/8/1934(H1N1).
Data set [7] concerns the target Matrix protein 2 (Influenza A virus) (UniProt P06821). The class given is cell membranes. The following applies: Influenza A virus (A/udorn/1972(H3N2)); 100 uM.
Data set [8] deals with Matrix protein 2 (Influenza A virus, UniProt P06821). It counts as cell membranes, Influenza A virus (A/udorn/1972(H3N2)).
Chain of Matrix protein 2 (P06821 whole entry): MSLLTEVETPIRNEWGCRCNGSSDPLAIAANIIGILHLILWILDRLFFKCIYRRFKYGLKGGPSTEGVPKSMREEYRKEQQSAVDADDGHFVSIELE
Data set [9] concerns Influenza B virus. Kind of data set: Antiviral activity against Influenza B virus (B/HK/5/72) infected in MDCK cells assessed as reduction of virus-induced cytopathic effect after 72 hrs by microscopic analysis. It counts as functional, cell-based. The settings on record: B/Hong Kong/05/1972.
Data set [10] can be described thus: Cytotoxicity against MDCK cells assessed as alternations in cell morphology after 72 hrs. The settings on record: dog. It counts as cell-based, Canis lupus familiaris.
The nature of data set [11]: Cytotoxicity against MDCK cells assessed as cell viability after 72 hrs by MTS assay. The class given is cell-based, Canis lupus familiaris. The following applies: dog.

Chain of Matrix protein 2 (Influenza A virus) (P06821 whole entry): as above

Regarding `NC12CC3CC(CC(C3)C1)C2` [AMANTADINE], the EC50 was 0.14 µM in data set [1]; 30 µM in data set [2]; 1.4 µM in data set [4]; 1.4 µM in data set [5]; 34 µM in [6]. For the same compound, in data set [3], the EC99 came to 0.72 µM.
On to `N=C(N)N1CC2C3CCC(C4CCC43)C2C1` (stereo not given), for which, in data set [7], the inhibition amounted to 94.5%.
As to `N=C(N)N1C[C@@H]2[C@H](C1)[C@@H]1[C@@H]3[C@H]4C=C[C@H]5[C@@H]3[C@H]2[C@H]2[C@@H]5[C@@H]4[C@@H]12`, the IC50 in [8] stood at 6.5 µM. Moreover, the EC50 in data set [1] is more than 5 µM; in data set [2] it was more than 100 µM; in data set [4], more than 100 µM; in data set [5], more than 100 µM; in data set [6], more than 100 µM. In addition, in data set [9], the result was inactive. For the same compound, the EC99 in data set [3] is more than 2 µM. Further, in data set [7], the inhibition came out at 89.6%. Moreover, the MCC at 72 h in data set [10] came to 2 µM. In addition, the CC50 at 72 h in data set [11] was 1.2 µM.
In the case of `N=C(N)N1C[C@@H]2[C@H](C1)[C@@H]1[C@@H]3[C@H]4CC[C@H]5[C@@H]3[C@H]2[C@H]2[C@@H]5[C@@H]4[C@@H]12`, in data set [8], it took 3.7 µM to reach half-maximal inhibition (IC50). Besides, the EC50 in data set [1] is more than 5 µM; in data set [2], more than 100 µM; in [4] it was more than 100 µM; in data set [5] it was more than 100 µM; in data set [6] it was more than 100 µM. The outcome in data set [9] was inactive. In addition, the EC99 in data set [3] was more than 2 µM. Besides, in data set [7], the inhibition was determined as 90.6%. Moreover, the MCC at 72 h in data set [10] came out at 7 µM. In addition, the CC50 at 72 h in data set [11] came out at 4.6 µM.
In data set [8], `C1C2[C@@H]3[C@H]2[C@@H]2C1[C@H]3[C@@H]1CNC[C@@H]12` yielded an IC50 of 3.3 µM. The half-maximal effective concentration (EC50) is 6.7 µM in data set [1]; more than 100 µM in data set [2]; more than 100 µM in data set [4]; more than 100 µM in [5]; more than 100 µM in [6]. Besides, the outcome in [9] was inactive. The EC99 in data set [3] was determined as 28 µM. In addition, the inhibition in [7] is 93.7%. Also, in data set [10], the MCC at 72 h is more than 100 µM. In addition, the CC50 at 72 h in [11] is more than 100 µM.
Turning to `N=C(N)N1C[C@@H]2[C@H](C1)[C@H]1C3CC4[C@H]([C@H]41)[C@@H]32`, the IC50 in data set [8] was determined as 0.8 µM. The EC50 in data set [1], in data set [2], in data set [4], in data set [5] and in [6] was more than 100 µM in each case. Also, the result in data set [9] was inactive. Further, the EC99 in [3] was more than 50 µM. Further, the inhibition in data set [7] is 99%. In [10], the MCC at 72 h was more than 100 µM. In addition, in data set [11], the CC50 at 72 h is 50 µM.
On to `C1=C[C@H]2[C@H]3[C@H]4[C@@H]1[C@@H]1[C@H]2[C@@H]2[C@H]3[C@@H]3CNC[C@@H]3[C@H]4[C@H]12`, for which the IC50 in [8] turned out to be 2.6 µM. For the same compound, the EC50 was 0.37 µM in data set [1]; more than 100 µM in data set [2]; more than 100 µM in data set [4]; more than 100 µM in data set [5]; more than 100 µM in data set [6]. In addition, in [9], the outcome was inactive. Moreover, in data set [3], the 99% effect concentration (EC99) is 3.45 µM. The compound also displayed an inhibition in [7] of 96.4%. Also, in [10], the MCC at 72 h worked out at 20 µM. Further, the CC50 at 72 h in data set [11] worked out at 11 µM.
As to `CC(N)C12CC3CC(CC(C3)C1)C2` (stereo not given) [RIMANTADINE], the EC50 in [1] was found to be 0.02 µM; in [2] it was 7.6 µM; in data set [4], 0.81 µM; in [5], 0.15 µM; in data set [6], 5.1 µM. Further, the EC99 in data set [3] came to 1.77 µM.
In turn, `C1C[C@H]2[C@H]3[C@H]4[C@@H]1[C@@H]1[C@H]2[C@@H]2[C@H]3[C@@H]3CNC[C@@H]3[C@H]4[C@H]12` gave an IC50 in data set [8] of 2.1 µM. The EC50 in data set [1] is 0.54 µM; in data set [2], more than 100 µM; in data set [4] it was more than 100 µM; in [5], more than 100 µM; in [6], more than 100 µM. Moreover, the outcome in data set [9] was inactive. For the same compound, the EC99 in data set [3] was more than 2 µM. This compound also showed an inhibition in [7] of 98.1%. Besides, the MCC at 72 h in [10] is 4 µM. In addition, in [11], the CC50 at 72 h worked out at 3.7 µM.
Compound `Brc1ccc(CNC23CC4CC(CC(C4)C2)C3)s1` came in with an inhibition in data set [7] of 77%.
